Test results taken from ChEMBL document CHEMBL1140816, “Syntheses of tetrahydrothiophenes and tetrahydrofurans and studies of their derivatives as melanocortin-4 receptor ligands” (Bioorg Med Chem Lett, 2008).

How the values were obtained:
Melanocortin receptor 4 [1] = target: T1, Melanocortin receptor 4 (Homo sapiens, UniProt P32245); assay: Displacement of [125I]NDP-MSH from human MC4R expressed in HEK293 cells; assay type: cell-based
Melanocortin receptor 4 [2] = target: T1, Melanocortin receptor 4; assay: Antagonist activity at human MC4R assessed as inhibition of alpha MSH-stimulated cAMP release by cell based assay; assay type: functional
Melanocortin receptor 4 [3] = target: T1, Melanocortin receptor 4; assay: Binding affinity at human MC4R
Melanocortin receptor 4 [4] = target: T1, Melanocortin receptor 4; assay: Agonist activity at MC4R; assay type: functional
Melanocortin receptor 4 [5] = target: T1, Melanocortin receptor 4; assay: Binding affinity at MC4R

T1 sequence (P32245 whole entry): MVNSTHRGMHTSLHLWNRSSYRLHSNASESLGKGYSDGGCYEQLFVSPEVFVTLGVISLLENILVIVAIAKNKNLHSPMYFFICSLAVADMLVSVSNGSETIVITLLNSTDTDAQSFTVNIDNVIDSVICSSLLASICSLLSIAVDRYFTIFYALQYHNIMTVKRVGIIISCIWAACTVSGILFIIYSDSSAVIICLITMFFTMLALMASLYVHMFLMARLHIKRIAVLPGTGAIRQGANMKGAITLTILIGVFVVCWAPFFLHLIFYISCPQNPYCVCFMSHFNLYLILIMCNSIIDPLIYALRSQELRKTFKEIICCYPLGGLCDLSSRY

SMILES | Ki (Melanocortin receptor 4 [1]) | also measured
CC(C)[C@H](NC(=O)CCN(C)C)c1cccc(F)c1N1CCN(C(=O)[C@@H]2CCO[C@@H]2c2ccc(Cl)cc2)CC1 | 480 nM | 
CC(C)[C@H](NC(=O)CCN(C)C)c1cccc(F)c1N1CCN(C(=O)[C@H]2COC[C@@H]2c2ccc(Cl)cc2)CC1 | 30 nM | 
Cc1ccc(N2CCN(C(=O)[C@H]3OCC[C@@H]3c3ccc(Cl)cc3)CC2)c([C@@H](NC(=O)CCN(C)C)C(C)C)c1 | 43 nM | 
CC(C)C[C@H](NC(=O)CCN(C)C)c1cc(C(F)(F)F)ccc1N1CCN(C(=O)[C@H]2CS(=O)(=O)C[C@@H]2c2ccc(Cl)cc2)CC1 | 170 nM | 
CC(C)[C@H](NC(=O)CCN(C)C)c1cccc(F)c1N1CCN(C(=O)[C@H]2CS(=O)(=O)C[C@@H]2c2ccc(Cl)cc2)CC1 | 380 nM | 
CC(C)C[C@H](NC(=O)CCN(C)C)c1cc(Cl)ccc1N1CCN(C(=O)[C@@H]2CCO[C@@H]2c2ccc(Cl)cc2)CC1 | 87 nM | 
Cc1ccc(N2CCN(C(=O)[C@@H]3CCO[C@@H]3c3ccc(Cl)cc3)CC2)c([C@@H](NC(=O)CCN(C)C)C(C)C)c1 | 120 nM | 
Cc1ccc(N2CCN(C(=O)[C@@H]3OCC[C@@H]3c3ccc(Cl)cc3)CC2)c([C@@H](NC(=O)CCN(C)C)C(C)C)c1 | 10 nM | IC50 (Melanocortin receptor 4 [2]): 530 nM
Cc1ccc(N2CCN(C(=O)[C@@H]3CCO[C@@H]3c3ccc(Cl)cc3)CC2)c([C@@H](N)C(C)C)c1 | 590 nM | 
CC(C)C[C@H](N)c1cc(C(F)(F)F)ccc1N1CCN(C(=O)C(C)(C)Cc2ccc(Cl)cc2)CC1 |  | Ki (Melanocortin receptor 4 [3]): 810 nM
Cc1ccc(N2CCN(C(=O)[C@H]3CCO[C@@H]3c3ccc(Cl)cc3)CC2)c([C@@H](N)C(C)C)c1 | 410 nM | 
CC(C)(C)N1C[C@H](C(=O)N2CCC(CN3CCOC3=O)(C3CCCCC3)CC2)[C@@H](c2ccc(F)cc2F)C1 |  | EC50 (Melanocortin receptor 4 [4]): 2 nM; IC50 (Melanocortin receptor 4 [5]): 14 nM
CC(C)[C@H](NC(=O)CCN(C)C)c1cccc(F)c1N1CCN(C(=O)[C@@H]2COC[C@@H]2c2ccc(Cl)cc2)CC1 | 28 nM | 
CC(C)C[C@H](NC(=O)CCN(C)C)c1cc(C(F)(F)F)ccc1N1CCN(C(=O)C2C(=O)OCC2c2ccc(Cl)cc2)CC1 (some centres not stated) | 290 nM | 
CC(C)[C@H](N)c1cccc(F)c1N1CCN(C(=O)C2COCC2c2ccc(Cl)cc2)CC1 (some centres not stated) | 790 nM | 
CC(C)[C@H](N)c1cccc(F)c1N1CCN(C(=O)[C@@H]2CCO[C@@H]2c2ccc(Cl)cc2)CC1 | 2100 nM | 
CC(C)C[C@H](NC(=O)CCN(C)C)c1cc(C(F)(F)F)ccc1N1CCN(C(=O)[C@H]2CCO[C@@H]2c2ccc(Cl)cc2)CC1 | 200 nM | 
CC(C)[C@H](NC(=O)CCN(C)C)c1cccc(F)c1N1CCN(C(=O)C2COCC2c2ccc(Cl)cc2)CC1 (some centres not stated) | 40 nM | 
CC(C)[C@H](N)c1cccc(F)c1N1CCN(C(=O)[C@H]2CCO[C@@H]2c2ccc(Cl)cc2)CC1 | 1100 nM | 
CC(C)C[C@H](NC(=O)CCN(C)C)c1cc(Cl)ccc1N1CCN(C(=O)[C@H]2CCO[C@@H]2c2ccc(Cl)cc2)CC1 | 74 nM | 
CC(C)[C@H](NC(=O)CCN(C)C)c1cccc(F)c1N1CCN(C(=O)[C@@H]2CS(=O)(=O)C[C@H]2c2ccc(Cl)cc2)CC1 | 37 nM | 

Further lines, with some results ahead:

Ki (Melanocortin receptor 4 [1]) | SMILES | also measured
330 nM | CC(C)C[C@H](N)c1cc(C(F)(F)F)ccc1N1CCN(C(=O)[C@H]2CCO[C@@H]2c2ccc(Cl)cc2)CC1 | 
190 nM | CNCCC(=O)N[C@@H](CC(C)C)c1cc(C(F)(F)F)ccc1N1CCN(C(=O)[C@H]2CS(=O)(=O)C[C@@H]2c2ccc(Cl)cc2)CC1 | 
120 nM | CC(C)C[C@H](N)c1cc(C(F)(F)F)ccc1N1CCN(C(=O)[C@H]2C[S+]([O-])C[C@@H]2c2ccc(Cl)cc2)CC1 (some centres not stated) | 
100 nM | CC(C)C[C@H](NC(=O)[C@@H](C)N)c1cc(C(F)(F)F)ccc1N1CCN(C(=O)[C@H]2CS(=O)(=O)C[C@@H]2c2ccc(Cl)cc2)CC1 | 
130 nM | CC(C)C[C@H](NC(=O)[C@@H](C)N)c1cc(C(F)(F)F)ccc1N1CCN(C(=O)[C@H]2CSC[C@@H]2c2ccc(Cl)cc2)CC1 | 
260 nM | CC(C)C[C@H](N)c1cc(C(F)(F)F)ccc1N1CCN(C(=O)C2C(=O)OCC2c2ccc(Cl)cc2)CC1 (some centres not stated) | 
170 nM | CNCCC(=O)N[C@@H](CC(C)C)c1cc(C(F)(F)F)ccc1N1CCN(C(=O)[C@H]2CSC[C@@H]2c2ccc(Cl)cc2)CC1 | 
38 nM | CC(C)C[C@H](N)c1cc(C(F)(F)F)ccc1N1CCN(C(=O)[C@H]2CS(=O)(=O)C[C@@H]2c2ccc(Cl)cc2)CC1 | IC50 (Melanocortin receptor 4 [2]): 690 nM
250 nM | CNCC(=O)N[C@@H](CC(C)C)c1cc(C(F)(F)F)ccc1N1CCN(C(=O)[C@H]2CSC[C@@H]2c2ccc(Cl)cc2)CC1 | 
180 nM | CC(C)C[C@H](NC(=O)CCN)c1cc(C(F)(F)F)ccc1N1CCN(C(=O)C2C(=O)OCC2c2ccc(Cl)cc2)CC1 (some centres not stated) | 
280 nM | CC(C)C[C@H](N)c1cc(Cl)ccc1N1CCN(C(=O)[C@H]2CCO[C@@H]2c2ccc(Cl)cc2)CC1 | 
110 nM | CC(C)C[C@H](NC(=O)CCN)c1cc(C(F)(F)F)ccc1N1CCN(C(=O)C2CC(=O)OC2c2ccc(Cl)cc2)CC1 (some centres not stated) | 
280 nM | CC(C)C[C@H](N)c1cc(C(F)(F)F)ccc1N1CCN(C(=O)C2COCC2c2ccc(Cl)cc2)CC1 (some centres not stated) | 
71 nM | CC(C)C[C@H](NC(=O)CCN(C)C)c1cc(C(F)(F)F)ccc1N1CCN(C(=O)C2COCC2c2ccc(Cl)cc2)CC1 (some centres not stated) | 
180 nM | CNCC(=O)N[C@@H](CC(C)C)c1cc(C(F)(F)F)ccc1N1CCN(C(=O)[C@H]2CS(=O)(=O)C[C@@H]2c2ccc(Cl)cc2)CC1 | 
280 nM | CC(C)C[C@H](N)c1cc(C(F)(F)F)ccc1N1CCN(C(=O)[C@H]2CSC[C@@H]2c2ccc(Cl)cc2)CC1 | 
130 nM | CC(C)C[C@H](NC(=O)CCN(C)C)c1cc(C(F)(F)F)ccc1N1CCN(C(=O)[C@H]2CSC[C@@H]2c2ccc(Cl)cc2)CC1 | 
230 nM | CC(C)C[C@H](NC(=O)CCN(C)C)c1cc(C(F)(F)F)ccc1N1CCN(C(=O)[C@H]2C[S+]([O-])C[C@@H]2c2ccc(Cl)cc2)CC1 (some centres not stated) | 
